Measured values: US12270016B1, “Structure and function of modular microfluidic device for in-vitro modeling of human organs” (Alfaisal University, priority 2024, dated 2025)

Columns and labels:
[1] = system: differentiated adipocytes; assay: Glucose uptake by the adipocytes (2-NBDG glucose uptake assay kit) in microfluidic device; type: cell-based, human
Description: (§1) Cell Culture: In vitro model of the human inflamed adipose tissue (adipocyte/immune cell coculture): Prior to seeding the cells into the microfluidic device, the fluidic compartments underwent a sterilization process by filling them with 70% ethanol for a minimum of 4 hours. Afterward, the microfluidic devices were washed with deionized water, and each microfluidic device was loaded with 100 μL of Poly-L-lysine solution (0.1 mg/mL in H2O) and incubated overnight at 37° C. The microfluidic devices were then washed again, first with sterilized deionized water and then with phosphate-buffered saline (PBS). Next, the microfluidic devices were primed with a preadipocyte growth medium from (Cell Applications). […] Cell viability and morphological changes were monitored using a microscope. […] The concentrations of Tumor Necrosis Factor (TNFα) and Interleukin-6 (IL-6) in the supernatants were measured using an ELISA method. […] The percentage of calcein-AM-labeled cells was used to quantify cell viability. The growth and morphology of the cells were regularly monitored under the microscope. […] To assess cell differentiation of the adipocytes, the lipid content within adipocytes was monitored by staining the lipid droplets with Oil Red O (Sigma-Aldrich, St. Louis, MO, USA). […]

[2] = system: Adipocytes and U937 cells; assay: Cytokine immunoassay (ELISA) of supernatants from adipocyte/immune cell co-culture in VasChip3x2 microfluidic device; type: cell-based, human; conditions: inflammation state induced with 100 ng/ml LPA
Description: as §1

Substance | glucose uptake ([1]; adipocyte monoculture, after insulin treatment) | cytokine secretion (TNF and IL-6 in the supernatants) [2] | glucose uptake ([1]; adipocyte/U937 co-culture, inflammation state induced with 100 ng/ml LPA)
insulin | significant glucose uptake | – | –
lysophosphatidic acid [LPA] | – | significant increase | decrease
